Measured values from article PMC4551797 (PLoS ONE, 2015).

How the values were obtained:
[1] = system: C57BL/6 mice; experiment: Oral glucose tolerance test with hormone measurement; format: in vivo, mouse; details: 10 mg/kg oral, glucose 3 g/kg, 1 hour
Method: For measurement of glucose only, overnight-fasted C57BL/6 mice in a normal light cycle were orally dosed with vehicle or compound, followed by an oral bolus of 3 g/kg glucose at 15 minutes post compound. At 0, 20, 40, 60, and 120 minutes post glucose dose, blood glucose was assessed via glucometers. Resulting raw data was used to generate AUCs. For measurement of hormones and glucose, overnight-fasted C57BL/6 mice acclimated for two weeks to a reverse light cycle were orally dosed with vehicle or compound, followed by an oral bolus of 3 g/kg glucose at 15 minutes post compound. At 0, 2, 5, 10, 20, 40, and 60 minutes post glucose dose, blood glucose was assessed via glucometers, followed immediately by collection of plasma for active GLP-1 (Mesoscale Discovery), insulin (Mesoscale Discovery), and total PYY. Glucose tolerance tests in diet-induced obese (DIO) C57BL/6 mice were performed in overnight-fasted animals dosed either acutely or after 2-week administration with vehicle or compound 18 at 60 mg/kg, followed 30 minutes post compound by an oral bolus of 2 g/kg glucose. At 0, 15, 30, 60, and 120 minutes post glucose dose, blood glucose was assessed via glucometers. Resulting raw data was used to generate AUCs.
To evaluate glucose, insulin, GLP-1, and PYY levels throughout the OGTT, each time-point consisted of a separate group of mice that were used to record glucose by use of a glucometer followed by terminal bleeds for measurement of active GLP-1, total PYY, and insulin. AUCs were then calculated for the entire hour of the OGTT. […] Changes in insulin AUCs were not increased with treatment of either sitagliptin or compound 18, likely due to the lower glucose levels reducing the drive for glucose-stimulated insulin secretion (Fig 5D).
Fig 5 Compound 18 increases GLP-1 and PYY and lowers the glucose and insulin excursions as compared to sitagliptin in an OGTT in C57BL/6 mice. […] Plasma was analyzed for active GLP-1 (A), total PYY (B), and insulin (D), while blood glucose was measured by glucometers (C).

[2] = system: C57BL/6 mice; experiment: Acute in vivo incretin secretion assay (plasma GLP-1 and PYY AUC); details: 100 mg/kg oral, fasted mice, 3-hour time course
Text: Plasma was separated by centrifugation, aliquoted, and analyzed for GLP-1 (X-36) amide (Mesoscale Discovery) and total PYY (Millipore). Resulting raw data was used to generate area under the curve analyses (AUCs).

[3] = system: gallbladder; details: cited from earlier work
[4] = Plasma compound levels after oral dosing (LC-MS/MS); details: C57BL/6, mouse, 100 mg/kg
[5] = system: C57BL/6 mice; experiment: Oral glucose tolerance test, glucose only; details: 100 mg/kg oral, glucose 3 g/kg 15 min after compound
Method: For measurement of glucose only, overnight-fasted C57BL/6 mice in a normal light cycle were orally dosed with vehicle or compound, followed by an oral bolus of 3 g/kg glucose at 15 minutes post compound. At 0, 20, 40, 60, and 120 minutes post glucose dose, blood glucose was assessed via glucometers. Resulting raw data was used to generate AUCs. […] At 0, 15, 30, 60, and 120 minutes post glucose dose, blood glucose was assessed via glucometers. Resulting raw data was used to generate AUCs.

[6] = system: C57BL/6 mice; experiment: Three-day study on GLP-1 and gallbladder filling (bile weight); format: in vivo, mouse; details: 100 mg/kg oral BID 3 days, 30 min after last dose
Method: C57BL/6 mice, Tgr5 KO mice, or their wild-type littermate controls were orally dosed with vehicle or compounds twice per day for 3 days, with overnight fasting performed on the evening of day 2. On the morning of day 3, animals were dosed orally with compounds and then euthanized by CO2 asphyxiation at 30 minutes after the fifth dose. Plasma was collected for analysis of GLP-1 (X-36) amide as mentioned above, followed immediately by incision into the abdominal cavity to remove and weigh bile from the gallbladder.
On the third day, compound was dosed in the morning followed 30 minutes later by measurement of bile filling (A) by use of a needle and syringe and GLP-1 (x-36) amide (B) by cardiac puncture.

Row | SMILES | insulin AUC during OGTT [1] | GLP-1 AUC increase over vehicle [2] | PYY AUC increase over vehicle [2] | gallbladder filling with bile [3] | AUC(0-t) [4] | Cmax [4] | Tmax [4] | effect on glucose tolerance in OGTT [5] | bile weight (gallbladder filling) [6] | plasma GLP-1 levels [6]
1 | N[C@@H](CC(=O)N1CCn2c(nnc2C(F)(F)F)C1)Cc1cc(F)c(F)cc1F [sitagliptin, reference compound] | not increased |  |  |  |  |  |  |  |  | 
2 | CC[C@H]1[C@@H](O)[C@@H]2[C@H](C[C@H](O)[C@]3(C)[C@@H]([C@H](C)C[C@H](C)C(=O)O)CC[C@@H]23)[C@@]2(C)CC[C@@H](O)C[C@@H]12 [INT-777, 6α-ethyl-23(S)-methylcholic acid, reference compound] |  | 2.8 fold over vehicle | 1.6 fold over vehicle | stimulated gallbladder filling with bile | 264 µM·h | 136 µM | 1.5 h | no detectable improvement of glucose tolerance | significant increase in bile weight | no detectable increase in GLP-1
